This note sets out measurements from patent publication US6107316A, “Method for treating protozoal infections” (priority 1998, dated 2000).

Series [1] is described as follows: toxicity towards MDBKF5D2 host cells (MTS). The note with it: bovine, mdbkf5d2 cells, Cytotoxicity (percent toxicity). As for the experimental part:
(§1) Compounds were tested for in vitro growth inhibitory activity against C. parvum grown in host MDBKF5D2 cells and for toxicity towards the host cells as follows. […] To test for toxicity towards the host cells, the media containing test compound (200 μl) were introduced into two wells of a 96 well microtiter plate containing confluent MDBKF5D2 cell monolayers and two wells without monolayers, and incubated at 37° C. in an 8% carbon dioxide environment. After 48 hours, the tetrazolium salt MTS (Owen's solution) and phenazine methosulfate were added to each well at concentrations of 333 μg/ml and 25 μM, respectively. The plate was returned to the incubator in the dark to develop for 2 hours, then 100 μl of each supernatant was transferred to a new microtiter plate and read spectrophotometrically in a plate reader at a wavelength of 490 nm. Percent toxicity was calculated by subtracting the mean optical density (OD) of the drug supernatants from the OD of medium control supernatants (no drug), dividing by the OD of the medium control, and multiplying by 100. To test for growth inhibitory activity against C. parvum, 3×10^4 oocysts per well were incubated in mentioned concentrations of each drug at 37° C. (8% CO2) on confluent MDBKF5D2 cell monolayers in 96 well microtiter plates. After 48 hours, the level of infection in each well was determined by means of an immunofluorescence assay. Percent inhibition of growth was calculated by subtracting the mean parasite count in the wells containing test compound from the mean parasite count in the medium control wells (no test compound), dividing by the mean parasite count in the medium control wells, and multiplying by 100. Paromomycin was included in the test as a standard.

Series [2] can be described thus: cytotoxicity towards L929 host cells (Cell Titer 96). The note with it: mouse, % Inhibition of host cell growth (values in parenthesis). As for the experimental part:
(§2) Cytotoxicity of the test compounds towards host cells was determined using the Cell Titer 96™ it (Promega Corporation, Madison, Wis.) as follows. Cells were seeded at a concentration of 5×10^3 cells per well containing 100 μl of medium in 96-well flat-bottom microtiter plates and incubated at 37° C. in a 5% carbon dioxide environment for 4 hours. Dilutions of the test compounds prepared as described above were then added, and incubation continued for 24, 48 or 72 hours. Four hours before each of these time points the growth medium containing test compound was replaced with 100 μl of fresh medium followed by addition of 16 μl of the kit dye solution. After incubation at 37° C. for another 4 hours, 100 μl of the kit solubilization/stop solution was added to each well, the contents of the wells were mixed and the plates kept 1 hour at room temperature. The plates were then read spectrophotometrically in a plate reader at a wavelength of 570 nm. […] Atovaquone was included in the test as a standard.

For series [3], the system named is Toxoplasma gondii. Description: growth inhibition of T. gondii in L929 host cells ([3H]-uracil incorporation). It counts as cell-based. Conditions: Toxoplasma gondii, L929 host cells; for inhibition at 5 µg/mL: 5.0 μg/ml; for inhibition at 5 µg/mL / inhibition at 25 µg/mL / inhibition at 0.5 µg/mL: read-out: % Inhibition; for inhibition at 25 µg/mL: 25.0 μg/ml; for inhibition at 0.05 µg/mL: 0.05 μg/ml; for inhibition at 0.5 µg/mL: 0.5 μg/ml. How it is done: (§3) Compounds were tested for it vitro growth inhibitory activity against Toxoplasma gondii replication in L929 (L929-ATCC CCL 1, mouse connective tissue) or HFF (human foreskin fibroblast) host cells using the [^3 H]-uracil incorporation technique as follows. Host cells were grown in 96-well flat-bottom microtiter plates at 37° C in a 5% carbon dioxide environment in modified Eagle's medium containing penicillin, streptomycin and 10% fetal equine serum. Wells containing a homogeneous confluent monolayer of host cells were infected with T. gondii tachyzoites at a ratio of 3 parasites per cell (approximately 6×10^4 tachyzoites per well containing 100 μl of medium). […] Two hours post infection, the cultures were washed to remove free parasites and the various dilutions of test compound were added. Cells were subsequently collected at 24, 48 and 72 hours. Four hours prior to each harvesting 50 Al of [^3 H]-uracil (1 μCi) was added. Cells were collected using a cell harvester and incorporated radioactivity was measured using a scintillation counter. […]

The subject of a further series is Cryptosporidium parvum. Description: growth inhibitory activity against C. parvum in host MDBKF5D2 cells (immunofluorescence). It counts as cell-based. Conditions: Cryptosporidium parvum, 48 h. How it is done: as §1
Series [4] in a line: cytotoxicity towards HFF host cells (Cell Titer 96). The note with it: human, % Inhibition of host cell growth (values in parenthesis). As for the experimental part: as §2
For series [5], the system named is Toxoplasma gondii. Description: growth inhibition of T. gondii in HFF host cells ([3H]-uracil incorporation). The note with it: Toxoplasma gondii, HFF host cells; for inhibition at 5 µg/mL: 5.0 μg/ml; for inhibition at 5 µg/mL / inhibition at 25 µg/mL / inhibition at 0.5 µg/mL: read-out: % Inhibition; for inhibition at 25 µg/mL: 25.0 μg/ml; for inhibition at 0.5 µg/mL: 0.5 μg/ml; for inhibition at 0.05 µg/mL: 0.05 μg/ml. It counts as cell-based. As for the experimental part:
as §3

In general, inhibition refers to the drop in the measured response relative to a control, in per cent. `CCC(C)(NC(=O)c1cc(F)c(F)c(F)c1)C(=O)CCl` (centres unmarked) [Compound 11] returned a cytotoxicity at 48 h, 0.1 µM in series [1] (0.1 μM) of 0%. The molecule further gave a cytotoxicity at 48 h, 1 µM in series [1] (1.0 μM) of 0%. The molecule also registered a cytotoxicity at 48 h, 10 µM in series [1] (10 μM) of 0%. This molecule also returned a cytotoxicity at 48 h, 100 µM in series [1] (100 μM) of 2.7%. The inhibition at 24 h in series [2] (L929, 5.0 μg/ml) came out at 0%; in series [2] (L929, 25.0 μg/ml) it was 22.6%; in series [4] (5.0 μg/ml), 2.1%; in series [4] (25.0 μg/ml), 17.5%. For the same molecule, the inhibition at 48 h turned out to be 5.5% in series [2] (L929, 5.0 μg/ml); 60.1% in series [2] (L929, 25.0 μg/ml); 6.1% in series [4] (5.0 μg/ml); 20% in series [4] (25.0 μg/ml). Moreover, the inhibition at 72 h in series [2] (L929, 5.0 μg/ml) was 36.9%; in series [2] (L929, 25.0 μg/ml), 89.6%; in series [4] (5.0 μg/ml) it was 0%; in series [4] (25.0 μg/ml), 50.1%. For the same molecule, the inhibition at 5 µg/mL with Toxoplasma gondii [3] (L929, 24 h, 24 hours) was found to be 21.5%; in the series on Toxoplasma gondii [3] (L929, 48 h, 48 hours), 80.1%; with Toxoplasma gondii [3] (L929, 72 h, 72 hours) it was 95.4%; with Toxoplasma gondii [5] (24 h, 24 hours), 73.4%; with Toxoplasma gondii [5] (48 h, 48 hours), 98.4%; with Toxoplasma gondii [5] (72 h, 72 hours), 97.7%. For the same molecule, the inhibition at 25 µg/mL in the series with Toxoplasma gondii [3] (L929, 24 h, 24 hours) was determined as 25.6%; in the series on Toxoplasma gondii [3] (L929, 48 h, 48 hours) it was 66.1%; in the series with Toxoplasma gondii [3] (L929, 72 h, 72 hours) it was 73.6%; in the series on Toxoplasma gondii [5] (24 h, 24 hours) it was 91.9%; in the series on Toxoplasma gondii [5] (48 h, 48 hours), 98.8%; in the series on Toxoplasma gondii [5] (72 h, 72 hours) it was 97.7%. Besides, at 0.1 µM the inhibition in the series on Cryptosporidium parvum (0.1 μM) was 5.6%. This molecule also came in with an inhibition at 1 µM with Cryptosporidium parvum (1.0 μM) of 18.1%. In the series with Cryptosporidium parvum (10 μM), this molecule displayed an inhibition at 10 µM of 23.9%. The molecule further yielded an inhibition at 100 µM in the series with Cryptosporidium parvum (100 μM) of 86.2%.
Consider `O=C1C(O)=C([C@H]2CC[C@H](c3ccc(Cl)cc3)CC2)C(=O)c2ccccc21` [Atovaquone, reference compound], for which the inhibition at 24 h in series [2] (L929, 0.05 μg/ml) is 0%; in series [2] (L929, 0.5 μg/ml) it was 14.3%; in series [2] (L929, 5.0 μg/ml) it was 20%; in series [4] (0.05 μg/ml), 0%; in series [4] (0.5 μg/ml), 0%; in series [4] (5.0 μg/ml), 6.2%. For the same molecule, the inhibition at 48 h worked out at 0% in series [2] (L929, 0.05 μg/ml); 15% in series [2] (L929, 0.5 μg/ml); 54.1% in series [2] (L929, 5.0 μg/ml); 0% in series [4] (0.05 μg/ml); 9.6% in series [4] (0.5 μg/ml); 31.1% in series [4] (5.0 μg/ml). The inhibition at 72 h was 0.2% in series [2] (L929, 0.05 μg/ml); 44.4% in series [2] (L929, 0.5 μg/ml); 78.1% in series [2] (L929, 5.0 μg/ml); 0% in series [4] (0.05 μg/ml); 1.4% in series [4] (0.5 μg/ml); 28.1% in series [4] (5.0 μg/ml). For the same molecule, the inhibition at 0.05 µg/mL in the series on Toxoplasma gondii [3] (L929, 24 h, 24 hours) worked out at 80.9%; in the series with Toxoplasma gondii [3] (L929, 48 h, 48 hours) it was 0%; with Toxoplasma gondii [3] (L929, 72 h, 72 hours) it was 0%; in the series with Toxoplasma gondii [5] (48 h) it was 50.5%; with Toxoplasma gondii [5] (72 h), 89.4%. In addition, the inhibition at 0.5 µg/mL with Toxoplasma gondii [3] (L929, 24 h, 24 hours) was determined as 85.2%; in the series on Toxoplasma gondii [3] (L929, 48 h, 48 hours), 99%; with Toxoplasma gondii [3] (L929, 72 h, 72 hours), 98.4%; in the series with Toxoplasma gondii [5] (24 h, 24 hours) it was 98.3%; with Toxoplasma gondii [5] (48 h, 48 hours), 77.8%; in the series with Toxoplasma gondii [5] (72 h, 72 hours) it was 99.8%. For the same molecule, the inhibition at 5 µg/mL in the series on Toxoplasma gondii [3] (L929, 24 h, 24 hours) stood at 80.3%; with Toxoplasma gondii [3] (L929, 48 h, 48 hours) it was 100%; in the series on Toxoplasma gondii [3] (L929, 72 h, 72 hours), 97.8%; with Toxoplasma gondii [5] (24 h, 24 hours), 95.5%; in the series with Toxoplasma gondii [5] (48 h, 48 hours) it was 99.8%; with Toxoplasma gondii [5] (72 h, 72 hours), 100%.
As for `NC[C@@H]1O[C@H](O[C@H]2[C@@H](O)[C@H](O[C@@H]3[C@@H](O)[C@H](N)C[C@H](N)[C@H]3O[C@H]3O[C@H](CO)[C@@H](O)[C@H](O)[C@H]3N)O[C@@H]2CO)[C@H](N)[C@@H](O)[C@@H]1O` [Paromomycin, reference compound], the inhibition at 2000 µg/mL with Cryptosporidium parvum came out at 77.8%.
